In US9040523B2, “Antifungal 5,6-dihydro-4H-pyrrolo[1,2-α][1,4]-benzodiazepines and 6H-pyrrolo[1,2-α][1,4]benzodiazepines substituted with benzene derivatives” (JANSSEN PHARMACEUTICA NV, priority 2010, dated 2015):

tested on: not listed separately; assay: Liver metabolic stability assay, hLM; format: in vitro ADME, human; conditions: human liver microsomes, 1 mg protein/ml, 5 μM test compound, 15 min, 37 °C

Compared with `CC(=O)c1ccc(C2=NCc3c(F)cccc3-n3cccc32)cc1` [Compound 20, 1-[4-(7-fluoro-6H-pyrrolo[1,2-a][1,4]benzodiazepin-4-yl)phenyl]-ethanone], `CC(=O)c1ccc(C2=NCc3c(F)cc(F)cc3-n3cccc32)cc1` [Compound 24, 1-[4-(7,9-difluoro-6H-pyrrolo[1,2-a][1,4]benzodiazepin-4-yl)phenyl]-ethanone] is lower in “%-compound metabolised_Met_hLM” value: 26% for the first, 20% for the second.

For `CC(=O)c1ccc(C2=NCc3c(Cl)cc(Cl)cc3-n3cccc32)cc1` [Compound 22, 1-[4-(7,9-dichloro-6H-pyrrolo[1,2-a][1,4]benzodiazepin-4-yl)phenyl]-ethanone], the “%-compound metabolised_Met_hLM” value was 27%.

tested on: Rhizomucor miehei IHEM13391; assay: Antifungal activity in vitro (resazurin susceptibility screen), Inf. K; format: cell-based; conditions: 37 °C, 48 hours, resa time 17 hours, read-out: Inf. K pIC50 (converted)
Description: (§1) The standard susceptibility screen was performed in 96-well plates (U-bottom, Greiner Bio-One). […] These serial dilutions (10 n1) were then spotted onto test-plates that could be stored in the dark at 4° C. for a maximum period of 2 weeks. […] The different fungal species/isolates (Table 3a) were cryopreserved and 1/1000 diluted in medium just prior to use. A standard inoculum of 200 μl containing 10^3 colony-forming unit (cfu) was then added to each well. A positive control (100% growth=fungal culture without antifungal) and a negative control (0% growth ═RPMI-MOPS medium) were included on each plate. […] [table]

`CC(=O)c1ccc(C2=NCc3c(F)cccc3-n3cccc32)cc1` [Compound 20, 1-[4-(7-fluoro-6H-pyrrolo[1,2-a][1,4]benzodiazepin-4-yl)phenyl]-ethanone] and `CC(=O)c1ccc(C2=NCc3c(F)cc(F)cc3-n3cccc32)cc1` [Compound 24, 1-[4-(7,9-difluoro-6H-pyrrolo[1,2-a][1,4]benzodiazepin-4-yl)phenyl]-ethanone] cannot be ordered by IC50: greater than 63.1 µM for the first, greater than 63.1 µM for the second.

In the case of `CC(=O)c1ccc(C2=NCc3c(Cl)cc(Cl)cc3-n3cccc32)cc1` [Compound 22, 1-[4-(7,9-dichloro-6H-pyrrolo[1,2-a][1,4]benzodiazepin-4-yl)phenyl]-ethanone], the IC50 was greater than 63.1 µM.

tested on: Sporothrix schenkii B62482; assay: Antifungal activity in vitro (resazurin susceptibility screen), Inf. A; format: cell-based; conditions: Sporothrix, B62482, Sporothrix schenkii B62482; 27 °C, 4 days, resa time 24 hours; highest in-test concentration 64 μM; read-out: Inf. A pIC50 (converted)
Outline: (§2)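 Compound serial dilutions were spotted onto test plates, kept in the dark at 4 °C for at most 2 weeks. Cryopreserved isolates were diluted 1/1000 in medium just before use and added at 10^3 cfu per well. Each plate carried drug-free culture as 100% growth and RPMI-MOPS medium alone as 0% growth.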

First: CC(=O)c1ccc(C2=NCc3c(F)cccc3-n3cccc32)cc1 [Compound 20, 1-[4-(7-fluoro-6H-pyrrolo[1,2-a][1,4]benzodiazepin-4-yl)phenyl]-ethanone]
Second: CC(=O)c1ccc(C2=NCc3c(F)cc(F)cc3-n3cccc32)cc1 [Compound 24, 1-[4-(7,9-difluoro-6H-pyrrolo[1,2-a][1,4]benzodiazepin-4-yl)phenyl]-ethanone]
The IC50 of the first is higher: greater than 63.1 µM for the first, 20 µM for the second.

For `CC(=O)c1ccc(C2=NCc3c(Cl)cc(Cl)cc3-n3cccc32)cc1` [Compound 22, 1-[4-(7,9-dichloro-6H-pyrrolo[1,2-a][1,4]benzodiazepin-4-yl)phenyl]-ethanone], the IC50 was 3.98 µM.

tested on: Trichophyton mentagrophytes B70554; assay: Antifungal activity in vitro (resazurin susceptibility screen), Inf. G; format: cell-based; conditions: Trichophyton mentagrophytes, B70554, Trichophyton mentagrophytes B70554; 27 °C, 7 days, resa time 24 hours; read-out: Inf. G pIC50 (converted)
Outline: (§3)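 Each well was inoculated with 10^3 cfu of fungus onto dried, pre-spotted compound serial dilutions in RPMI-MOPS medium, with fungal growth read by resazurin. Growth was referenced to drug-free culture (100%) and medium-only (0%) controls on each plate.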

First: CC(=O)c1ccc(C2=NCc3c(F)cccc3-n3cccc32)cc1 [Compound 20, 1-[4-(7-fluoro-6H-pyrrolo[1,2-a][1,4]benzodiazepin-4-yl)phenyl]-ethanone]
Second: CC(=O)c1ccc(C2=NCc3c(F)cc(F)cc3-n3cccc32)cc1 [Compound 24, 1-[4-(7,9-difluoro-6H-pyrrolo[1,2-a][1,4]benzodiazepin-4-yl)phenyl]-ethanone]
The IC50 of the first is 1.6-fold lower: 0.398 µM for the first, 0.631 µM for the second.

For `CC(=O)c1ccc(C2=NCc3c(Cl)cc(Cl)cc3-n3cccc32)cc1` [Compound 22, 1-[4-(7,9-dichloro-6H-pyrrolo[1,2-a][1,4]benzodiazepin-4-yl)phenyl]-ethanone], the IC50 was 0.316 µM.

tested on: Scedosporium prolificans IHEM21157; assay: Antifungal activity in vitro (resazurin susceptibility screen), Inf. I; format: cell-based; conditions: Lomentospora prolificans, 37 °C, 48 hours, resa time 17 hours, read-out: Inf. I pIC50 (converted)
Description: as §1

First: CC(=O)c1ccc(C2=NCc3c(F)cccc3-n3cccc32)cc1 [Compound 20, 1-[4-(7-fluoro-6H-pyrrolo[1,2-a][1,4]benzodiazepin-4-yl)phenyl]-ethanone]
Second: CC(=O)c1ccc(C2=NCc3c(F)cc(F)cc3-n3cccc32)cc1 [Compound 24, 1-[4-(7,9-difluoro-6H-pyrrolo[1,2-a][1,4]benzodiazepin-4-yl)phenyl]-ethanone]
The IC50 of the first is 4-fold lower: 0.631 µM for the first, 2.51 µM for the second.

For `CC(=O)c1ccc(C2=NCc3c(Cl)cc(Cl)cc3-n3cccc32)cc1` [Compound 22, 1-[4-(7,9-dichloro-6H-pyrrolo[1,2-a][1,4]benzodiazepin-4-yl)phenyl]-ethanone], the IC50 was 1.26 µM.

tested on: Rhizopus oryzae IHEM5223; assay: Antifungal activity in vitro (resazurin susceptibility screen), Inf. J; format: cell-based; conditions: Rhizopus arrhizus, 37 °C, 24 hours, resa time 6 hours, read-out: Inf. J pIC50 (converted)
Description: as §1

`CC(=O)c1ccc(C2=NCc3c(F)cccc3-n3cccc32)cc1` [Compound 20, 1-[4-(7-fluoro-6H-pyrrolo[1,2-a][1,4]benzodiazepin-4-yl)phenyl]-ethanone] and `CC(=O)c1ccc(C2=NCc3c(F)cc(F)cc3-n3cccc32)cc1` [Compound 24, 1-[4-(7,9-difluoro-6H-pyrrolo[1,2-a][1,4]benzodiazepin-4-yl)phenyl]-ethanone] cannot be ordered by IC50: greater than 63.1 µM for the first, greater than 63.1 µM for the second.

`CC(=O)c1ccc(C2=NCc3c(Cl)cc(Cl)cc3-n3cccc32)cc1` [Compound 22, 1-[4-(7,9-dichloro-6H-pyrrolo[1,2-a][1,4]benzodiazepin-4-yl)phenyl]-ethanone] gave an IC50 greater than 63.1 µM.

tested on: Mucor circinelloides IHEM21105; assay: Antifungal activity in vitro (resazurin susceptibility screen), Inf. L; format: cell-based; conditions: 27 °C, 48 hours, resa time 17 hours, read-out: Inf. L pIC50 (converted)
Description: as §1

`CC(=O)c1ccc(C2=NCc3c(F)cccc3-n3cccc32)cc1` [Compound 20, 1-[4-(7-fluoro-6H-pyrrolo[1,2-a][1,4]benzodiazepin-4-yl)phenyl]-ethanone] and `CC(=O)c1ccc(C2=NCc3c(F)cc(F)cc3-n3cccc32)cc1` [Compound 24, 1-[4-(7,9-difluoro-6H-pyrrolo[1,2-a][1,4]benzodiazepin-4-yl)phenyl]-ethanone] cannot be ordered by IC50: greater than 63.1 µM for the first, greater than 63.1 µM for the second.

With `CC(=O)c1ccc(C2=NCc3c(Cl)cc(Cl)cc3-n3cccc32)cc1` [Compound 22, 1-[4-(7,9-dichloro-6H-pyrrolo[1,2-a][1,4]benzodiazepin-4-yl)phenyl]-ethanone] the IC50 was greater than 63.1 µM.

tested on: Candida parapsilosis B66126; assay: Antifungal activity in vitro (resazurin susceptibility screen), Inf. D; format: cell-based; conditions: Lodderomyces parapsilosis; Candida parapsilosis B66126; 37 °C, 24 hours, resa time 4 hours; read-out: Inf. D pIC50 (converted)
Outline: as §3

First: CC(=O)c1ccc(C2=NCc3c(F)cccc3-n3cccc32)cc1 [Compound 20, 1-[4-(7-fluoro-6H-pyrrolo[1,2-a][1,4]benzodiazepin-4-yl)phenyl]-ethanone]
Second: CC(=O)c1ccc(C2=NCc3c(F)cc(F)cc3-n3cccc32)cc1 [Compound 24, 1-[4-(7,9-difluoro-6H-pyrrolo[1,2-a][1,4]benzodiazepin-4-yl)phenyl]-ethanone]
The IC50 of the first is higher: greater than 63.1 µM for the first, 3.98 µM for the second.

For `CC(=O)c1ccc(C2=NCc3c(Cl)cc(Cl)cc3-n3cccc32)cc1` [Compound 22, 1-[4-(7,9-dichloro-6H-pyrrolo[1,2-a][1,4]benzodiazepin-4-yl)phenyl]-ethanone], the IC50 was 25.1 µM.

tested on: Aspergillus fumigatus B42928; assay: Antifungal activity in vitro (resazurin susceptibility screen), Inf. E; format: cell-based; conditions: Aspergillus fumigatus B42928; 27 °C, 48 hours, resa time 17 hours; read-out: Inf. E pIC50 (converted)
Outline: as §2

First: CC(=O)c1ccc(C2=NCc3c(F)cccc3-n3cccc32)cc1 [Compound 20, 1-[4-(7-fluoro-6H-pyrrolo[1,2-a][1,4]benzodiazepin-4-yl)phenyl]-ethanone]
Second: CC(=O)c1ccc(C2=NCc3c(F)cc(F)cc3-n3cccc32)cc1 [Compound 24, 1-[4-(7,9-difluoro-6H-pyrrolo[1,2-a][1,4]benzodiazepin-4-yl)phenyl]-ethanone]
The IC50 of the first is 1.6-fold lower: 0.501 µM for the first, 0.794 µM for the second.

In the case of `CC(=O)c1ccc(C2=NCc3c(Cl)cc(Cl)cc3-n3cccc32)cc1` [Compound 22, 1-[4-(7,9-dichloro-6H-pyrrolo[1,2-a][1,4]benzodiazepin-4-yl)phenyl]-ethanone], the IC50 was 0.251 µM.

target: CYP2D6 (Homo sapiens, UniProt P10635); assay: Cytochrome P450 inhibition, Protocol A, cDNA expressed proteins, fluorogenic substrate; format: in vitro ADME; conditions: % inhibition at 10 μM; substrate AMMC; cDNA expressed protein
Sequence (P10635 whole entry): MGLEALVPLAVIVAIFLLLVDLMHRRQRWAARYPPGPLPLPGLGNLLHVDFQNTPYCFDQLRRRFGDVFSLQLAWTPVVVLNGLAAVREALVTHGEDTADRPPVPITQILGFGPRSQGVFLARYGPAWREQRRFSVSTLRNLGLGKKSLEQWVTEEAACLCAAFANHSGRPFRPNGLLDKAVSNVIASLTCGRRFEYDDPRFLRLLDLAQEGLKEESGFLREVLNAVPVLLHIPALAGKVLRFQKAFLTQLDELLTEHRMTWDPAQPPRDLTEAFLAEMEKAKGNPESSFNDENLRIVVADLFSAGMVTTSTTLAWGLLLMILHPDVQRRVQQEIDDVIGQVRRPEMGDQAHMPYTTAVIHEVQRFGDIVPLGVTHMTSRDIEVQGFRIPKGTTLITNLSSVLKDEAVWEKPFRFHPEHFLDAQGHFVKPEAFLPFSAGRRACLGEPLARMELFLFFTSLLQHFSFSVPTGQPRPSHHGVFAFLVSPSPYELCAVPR
Outline: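 cDNA-expressed enzymes with fluorogenic substrates (three separate ones for CYP3A4) in sodium/potassium buffer pH 7.4 plus NADPH-generating system. Compounds at 1 nM to 10 μM final, prewarmed 5 min at 37° C, reaction started with NADP+, stopped, then fluorescence measured.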

Compared with `CC(=O)c1ccc(C2=NCc3c(F)cccc3-n3cccc32)cc1` [Compound 20, 1-[4-(7-fluoro-6H-pyrrolo[1,2-a][1,4]benzodiazepin-4-yl)phenyl]-ethanone], `CC(=O)c1ccc(C2=NCc3c(F)cc(F)cc3-n3cccc32)cc1` [Compound 24, 1-[4-(7,9-difluoro-6H-pyrrolo[1,2-a][1,4]benzodiazepin-4-yl)phenyl]-ethanone] is lower in hCYP2D6_AMMC_Pct_Inh: 20% for the first, 3% for the second.

Molecule `CC(=O)c1ccc(C2=NCc3c(Cl)cc(Cl)cc3-n3cccc32)cc1` [Compound 22, 1-[4-(7,9-dichloro-6H-pyrrolo[1,2-a][1,4]benzodiazepin-4-yl)phenyl]-ethanone] has a hCYP2D6_AMMC_Pct_Inh of 53%.

tested on: not listed separately; assay: Liver metabolic stability assay, gpLM; format: in vitro ADME, guinea pig; conditions: guinea pig microsomes, 1 mg protein/ml, 5 μM test compound, 15 min, 37 °C

Compared with `CC(=O)c1ccc(C2=NCc3c(F)cccc3-n3cccc32)cc1` [Compound 20, 1-[4-(7-fluoro-6H-pyrrolo[1,2-a][1,4]benzodiazepin-4-yl)phenyl]-ethanone], `CC(=O)c1ccc(C2=NCc3c(F)cc(F)cc3-n3cccc32)cc1` [Compound 24, 1-[4-(7,9-difluoro-6H-pyrrolo[1,2-a][1,4]benzodiazepin-4-yl)phenyl]-ethanone] is lower in “%-compound metabolised Met_gpLM” value: 88% for the first, 53% for the second.

With `CC(=O)c1ccc(C2=NCc3c(Cl)cc(Cl)cc3-n3cccc32)cc1` [Compound 22, 1-[4-(7,9-dichloro-6H-pyrrolo[1,2-a][1,4]benzodiazepin-4-yl)phenyl]-ethanone] the “%-compound metabolised Met_gpLM” value was 73%.
